The values that follow come from paper doi:10.1101/2023.12.04.569845, “Identification of 4-(6-((2-methoxyphenyl)amino)pyrazin-2-yl)benzoic acids as CSNK2A inhibitors with antiviral activity and improved selectivity over PIM3” (bioRxiv, 2023).

Among the targets are CAMK2D (Homo sapiens, UniProt Q13557); DAPK3 (Homo sapiens, UniProt O43293); WNK1 (Homo sapiens, UniProt Q9H4A3); NEK7 (Homo sapiens, UniProt Q8TDX7).
Experiment in all cases: biochemical
What all share (parameters): Thermal shift (DSF, SYPRO Orange) Tm shift of recombinant kinase domains at 10 uM compound

The next assay deals with T1, CASK (Homo sapiens, UniProt O14936).
T1 sequence (O14936 1-926): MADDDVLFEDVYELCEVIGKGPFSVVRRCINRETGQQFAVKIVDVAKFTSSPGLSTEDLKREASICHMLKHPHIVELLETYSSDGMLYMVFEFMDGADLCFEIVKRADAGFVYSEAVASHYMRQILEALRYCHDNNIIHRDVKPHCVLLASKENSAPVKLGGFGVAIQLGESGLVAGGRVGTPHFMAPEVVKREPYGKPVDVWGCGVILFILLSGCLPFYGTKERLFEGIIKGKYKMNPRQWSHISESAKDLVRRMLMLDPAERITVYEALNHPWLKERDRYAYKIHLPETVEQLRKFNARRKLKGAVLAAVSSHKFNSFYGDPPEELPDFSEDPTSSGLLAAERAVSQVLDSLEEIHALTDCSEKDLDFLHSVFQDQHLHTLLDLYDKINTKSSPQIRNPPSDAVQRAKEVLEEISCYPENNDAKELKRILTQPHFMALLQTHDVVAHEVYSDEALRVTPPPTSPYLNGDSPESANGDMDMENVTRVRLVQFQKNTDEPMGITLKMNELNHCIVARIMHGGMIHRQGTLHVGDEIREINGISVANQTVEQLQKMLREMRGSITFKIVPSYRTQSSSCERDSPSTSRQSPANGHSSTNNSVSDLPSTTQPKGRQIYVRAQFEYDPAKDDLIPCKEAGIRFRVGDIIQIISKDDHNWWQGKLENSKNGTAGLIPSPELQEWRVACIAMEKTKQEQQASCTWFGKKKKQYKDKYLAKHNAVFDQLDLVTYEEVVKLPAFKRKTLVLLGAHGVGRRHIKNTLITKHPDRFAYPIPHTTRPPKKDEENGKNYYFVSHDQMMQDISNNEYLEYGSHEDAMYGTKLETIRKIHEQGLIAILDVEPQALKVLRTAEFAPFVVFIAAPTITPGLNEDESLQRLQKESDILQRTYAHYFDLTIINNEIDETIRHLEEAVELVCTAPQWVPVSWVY

The target of another assay is T2, DMPK1 (Homo sapiens, UniProt Q09013).
T2 construct: gene DMPK
T2 sequence (Q09013 1-629): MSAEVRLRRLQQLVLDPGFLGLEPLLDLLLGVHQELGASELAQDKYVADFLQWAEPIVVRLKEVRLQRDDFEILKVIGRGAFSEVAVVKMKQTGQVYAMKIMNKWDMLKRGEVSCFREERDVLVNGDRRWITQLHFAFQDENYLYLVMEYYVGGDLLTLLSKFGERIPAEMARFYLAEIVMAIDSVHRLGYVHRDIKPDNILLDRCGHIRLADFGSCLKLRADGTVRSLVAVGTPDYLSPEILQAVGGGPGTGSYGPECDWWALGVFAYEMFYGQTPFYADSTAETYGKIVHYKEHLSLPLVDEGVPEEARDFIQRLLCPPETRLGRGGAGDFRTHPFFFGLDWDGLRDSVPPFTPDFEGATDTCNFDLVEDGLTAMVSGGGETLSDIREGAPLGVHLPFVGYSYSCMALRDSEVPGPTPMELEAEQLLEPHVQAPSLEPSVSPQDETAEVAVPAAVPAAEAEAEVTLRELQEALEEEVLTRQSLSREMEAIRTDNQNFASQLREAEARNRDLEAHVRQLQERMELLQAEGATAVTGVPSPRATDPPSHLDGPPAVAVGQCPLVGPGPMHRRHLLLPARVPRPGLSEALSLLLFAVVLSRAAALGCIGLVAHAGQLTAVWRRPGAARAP

A further assay has as its target T3, DRAK2 (Homo sapiens, UniProt O94768).
T3 construct: gene STK17B
T3 sequence (O94768 1-372): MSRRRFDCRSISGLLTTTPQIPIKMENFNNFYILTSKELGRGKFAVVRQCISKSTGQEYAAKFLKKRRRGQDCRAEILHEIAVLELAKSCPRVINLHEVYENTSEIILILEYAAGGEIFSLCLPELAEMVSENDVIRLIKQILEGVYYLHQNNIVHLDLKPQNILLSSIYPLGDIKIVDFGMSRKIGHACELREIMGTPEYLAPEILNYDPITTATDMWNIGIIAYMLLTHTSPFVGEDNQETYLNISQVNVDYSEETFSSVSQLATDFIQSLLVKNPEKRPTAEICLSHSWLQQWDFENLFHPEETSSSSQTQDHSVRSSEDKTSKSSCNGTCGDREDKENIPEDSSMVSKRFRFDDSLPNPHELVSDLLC

Where two headings read alike, the source gives them in different places.

DAPK3, sequence (O43293 whole entry): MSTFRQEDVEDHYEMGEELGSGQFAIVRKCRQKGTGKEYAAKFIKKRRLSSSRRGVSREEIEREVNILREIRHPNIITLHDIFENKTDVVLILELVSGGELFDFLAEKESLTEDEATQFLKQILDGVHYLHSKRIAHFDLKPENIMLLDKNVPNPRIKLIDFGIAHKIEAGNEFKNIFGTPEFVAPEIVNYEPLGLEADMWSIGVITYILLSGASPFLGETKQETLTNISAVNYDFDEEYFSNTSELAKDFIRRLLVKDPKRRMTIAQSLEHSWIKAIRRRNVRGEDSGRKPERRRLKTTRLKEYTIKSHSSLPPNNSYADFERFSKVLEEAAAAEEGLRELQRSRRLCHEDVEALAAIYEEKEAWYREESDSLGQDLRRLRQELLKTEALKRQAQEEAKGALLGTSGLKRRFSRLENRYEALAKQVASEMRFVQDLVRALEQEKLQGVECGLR
WNK1, sequence (Q9H4A3 whole entry): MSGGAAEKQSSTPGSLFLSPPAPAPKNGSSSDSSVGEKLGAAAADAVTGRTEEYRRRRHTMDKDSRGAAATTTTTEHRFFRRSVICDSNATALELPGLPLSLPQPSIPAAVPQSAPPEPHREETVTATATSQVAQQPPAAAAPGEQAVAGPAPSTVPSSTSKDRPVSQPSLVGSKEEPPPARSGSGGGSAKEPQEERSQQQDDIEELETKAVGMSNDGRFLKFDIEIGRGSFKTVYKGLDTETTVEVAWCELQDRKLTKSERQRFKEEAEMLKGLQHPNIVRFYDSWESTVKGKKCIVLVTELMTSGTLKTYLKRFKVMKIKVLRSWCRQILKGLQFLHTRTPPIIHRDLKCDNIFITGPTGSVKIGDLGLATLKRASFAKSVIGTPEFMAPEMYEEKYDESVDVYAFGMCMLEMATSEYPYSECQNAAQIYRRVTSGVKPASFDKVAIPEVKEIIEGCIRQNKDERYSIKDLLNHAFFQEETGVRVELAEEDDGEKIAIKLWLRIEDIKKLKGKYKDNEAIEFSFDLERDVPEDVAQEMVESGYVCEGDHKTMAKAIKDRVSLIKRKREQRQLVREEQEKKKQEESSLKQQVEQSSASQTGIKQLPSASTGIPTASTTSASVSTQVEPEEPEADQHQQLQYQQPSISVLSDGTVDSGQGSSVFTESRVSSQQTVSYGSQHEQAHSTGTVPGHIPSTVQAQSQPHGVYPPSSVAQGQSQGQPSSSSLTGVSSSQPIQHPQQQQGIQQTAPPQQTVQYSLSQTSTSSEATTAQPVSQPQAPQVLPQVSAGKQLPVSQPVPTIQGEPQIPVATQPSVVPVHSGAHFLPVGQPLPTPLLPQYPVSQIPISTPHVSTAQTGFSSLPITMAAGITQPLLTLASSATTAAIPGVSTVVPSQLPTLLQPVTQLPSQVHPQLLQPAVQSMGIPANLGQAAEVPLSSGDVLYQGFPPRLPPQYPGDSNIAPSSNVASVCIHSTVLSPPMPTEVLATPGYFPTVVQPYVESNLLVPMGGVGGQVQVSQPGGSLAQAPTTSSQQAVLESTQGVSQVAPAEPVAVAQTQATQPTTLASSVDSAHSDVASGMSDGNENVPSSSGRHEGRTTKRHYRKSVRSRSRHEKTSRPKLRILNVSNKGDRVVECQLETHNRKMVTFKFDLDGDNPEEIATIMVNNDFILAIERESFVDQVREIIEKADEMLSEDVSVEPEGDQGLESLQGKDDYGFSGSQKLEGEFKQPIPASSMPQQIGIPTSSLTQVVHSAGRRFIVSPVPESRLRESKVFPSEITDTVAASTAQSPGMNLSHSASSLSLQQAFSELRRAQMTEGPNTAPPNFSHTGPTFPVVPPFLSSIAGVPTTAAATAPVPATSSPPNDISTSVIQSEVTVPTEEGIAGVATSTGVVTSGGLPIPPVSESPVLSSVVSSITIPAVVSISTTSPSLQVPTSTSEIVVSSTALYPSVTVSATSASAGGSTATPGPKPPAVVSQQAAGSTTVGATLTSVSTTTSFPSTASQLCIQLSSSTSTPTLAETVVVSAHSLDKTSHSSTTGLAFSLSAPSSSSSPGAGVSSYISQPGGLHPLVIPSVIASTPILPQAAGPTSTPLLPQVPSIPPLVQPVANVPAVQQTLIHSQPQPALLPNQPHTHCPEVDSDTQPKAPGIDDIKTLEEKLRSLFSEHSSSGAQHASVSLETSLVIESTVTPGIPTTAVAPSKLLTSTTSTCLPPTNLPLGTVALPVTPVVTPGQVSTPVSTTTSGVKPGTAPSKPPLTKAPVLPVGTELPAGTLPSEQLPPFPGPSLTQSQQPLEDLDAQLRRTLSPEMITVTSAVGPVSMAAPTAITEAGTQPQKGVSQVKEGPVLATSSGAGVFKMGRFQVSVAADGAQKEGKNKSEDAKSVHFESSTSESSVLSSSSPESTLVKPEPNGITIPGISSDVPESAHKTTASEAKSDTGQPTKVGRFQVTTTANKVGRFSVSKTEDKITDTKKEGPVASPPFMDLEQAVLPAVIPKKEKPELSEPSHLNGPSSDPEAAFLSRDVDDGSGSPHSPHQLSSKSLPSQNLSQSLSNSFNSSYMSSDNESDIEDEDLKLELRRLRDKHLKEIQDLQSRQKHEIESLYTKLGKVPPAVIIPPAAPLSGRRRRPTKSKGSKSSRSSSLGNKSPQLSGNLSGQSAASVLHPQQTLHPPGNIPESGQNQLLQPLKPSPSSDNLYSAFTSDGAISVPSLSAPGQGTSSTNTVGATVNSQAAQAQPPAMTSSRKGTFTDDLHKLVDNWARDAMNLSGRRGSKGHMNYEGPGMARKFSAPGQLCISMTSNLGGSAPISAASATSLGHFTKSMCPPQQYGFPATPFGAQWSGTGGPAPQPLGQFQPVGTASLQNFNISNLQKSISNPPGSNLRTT
CAMK2D, sequence (Q13557 whole entry): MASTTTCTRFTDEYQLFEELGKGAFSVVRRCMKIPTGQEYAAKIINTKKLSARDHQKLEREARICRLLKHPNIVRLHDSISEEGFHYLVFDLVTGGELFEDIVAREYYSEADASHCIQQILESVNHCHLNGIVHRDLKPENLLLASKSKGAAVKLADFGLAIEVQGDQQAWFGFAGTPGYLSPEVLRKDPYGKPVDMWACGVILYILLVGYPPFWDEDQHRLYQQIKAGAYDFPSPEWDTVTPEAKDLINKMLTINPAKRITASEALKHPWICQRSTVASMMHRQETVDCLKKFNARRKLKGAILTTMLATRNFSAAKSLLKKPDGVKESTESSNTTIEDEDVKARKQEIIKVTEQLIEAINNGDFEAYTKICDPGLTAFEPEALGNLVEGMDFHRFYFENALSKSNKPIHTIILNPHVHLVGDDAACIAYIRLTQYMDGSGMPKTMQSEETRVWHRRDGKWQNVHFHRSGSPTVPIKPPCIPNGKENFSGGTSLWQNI
NEK7, sequence (Q8TDX7 whole entry): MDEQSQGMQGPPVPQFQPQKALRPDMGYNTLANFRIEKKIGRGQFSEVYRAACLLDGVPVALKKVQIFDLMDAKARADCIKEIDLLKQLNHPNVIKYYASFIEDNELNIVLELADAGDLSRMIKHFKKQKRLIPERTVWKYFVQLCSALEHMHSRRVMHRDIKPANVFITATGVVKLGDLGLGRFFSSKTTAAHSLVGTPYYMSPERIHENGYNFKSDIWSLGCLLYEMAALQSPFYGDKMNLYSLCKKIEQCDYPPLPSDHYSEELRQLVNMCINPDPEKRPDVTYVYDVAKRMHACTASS

Consider `COc1ccc(OC(C)C)cc1Nc1cncc(-c2ccc(C(=O)O)cc2)n1` [7c], for which the ΔTm at 10 µM is 0 °C at CAMK2D (read-out: 7c); 14 °C on DAPK3 (read-out: 7c); 0 °C at WNK1 (read-out: 7c); -1 °C at NEK7 (read-out: 7c); 0 °C on CASK (read-out: 7c); 0 °C at DMPK1 (read-out: 7c). Moreover, the ΔTm at 10 µM on DRAK2 (read-out: 7c) came to 0 °C.
Take `CC(C)Oc1ccc2ccn(-c3cncc(-c4ccc(C(=O)O)cc4)n3)c2c1` [6c]: the ΔTm at 10 µM at CAMK2D (read-out: 6c) is 3 °C; on DAPK3 (read-out: 6c), 11 °C; on WNK1 (read-out: 6c) it was 2 °C; at NEK7 (read-out: 6c), -1 °C; on CASK (read-out: 6c) it was 1 °C; at DMPK1 (read-out: 6c), 0 °C. For the same molecule, the ΔTm at 10 µM on DRAK2 (read-out: 6c) turned out to be 2 °C.
`CC(C)Nc1ccc2cnn(-c3cncc(-c4ccc(C(=O)O)cc4)n3)c2c1` [compound 2, 2]: the ΔTm at 10 µM at CAMK2D (read-out: 2) was 3 °C; at DAPK3 (read-out: 2), 16 °C; at WNK1 (read-out: 2) it was 1 °C; on NEK7 (read-out: 2), 0 °C; at CASK (read-out: 2) it was 0 °C; on DMPK1 (read-out: 2), 0 °C. In addition, on DRAK2 (read-out: 2), the ΔTm at 10 µM is 3 °C.
